Primed or numbered codes have the meaning given here. Where no end group is shown, it is not given here. [ ]: non-standard residue; d: D form. Pen′ = not defined here

The record followed here is patent US20100197601A1, “USE OF A FIBRINOGEN RECEPTOR ANTAGONIST AND/OR FOLLICULAR GONADOTROPIN RELEASING PEPTIDE AS A THERAPEUTIC AGENT IN THE TREATMENT OF STREPTOCOCCUS PNEUMONIA INFECTION” (priority 2007, published 2010).

The test system of one experiment is HIV-1IIIB. The experiment can be described thus: HIV-1 antiviral assay in CEM-SS cells.
The test system of the next experiment is HCMV strain AD169. Description: HCMV plaque formation assay in MRC-5 cells. The settings on record: for inhibition of HCMV plaque formation as compared to the virus control experiment: 10 micrograms per ml, 7-10 days. In kind it is cell-based.
Experiment [1] relates to hepatitis B virus (HBV) ayw strain. The experiment can be described thus: HBV experimental assay system, HepG2-2.2.15. In kind it is cell-based. Conditions: 10 micrograms per ml, six days, HBV DNA by TaqMan PCR, combination 0.95 mole peptide 1 and 1.05 mole peptide 2. In general terms: Quantitative PCR measures a nucleic acid by following its amplification.
The subject of another experiment is Streptococcus pneumoniae. The experiment can be described thus: Streptococcus pneumoniae assay. In kind it is cell-based. The settings on record: 10 micrograms per ml; 5x10^5 CFU/mL; read visually; combination for instance 0.95 mole peptide 1 and 1.05 mole peptide 2.
Experiment [2] has as its system murine spleen cells restimulated with Ovalbumin. The experiment can be described thus: Th1/Th2 cytokine profiling assay. In kind it is cell-based, Balb/c mice. The settings on record: 10 micrograms per ml.
The subject of a further experiment is HUVEC. The experiment can be described thus: Endothelial tube formation assay. In kind it is cell-based, human. Conditions: 10 micrograms per ml, 20 hours. The protocol: The endothelial tube formation assay is based on the ability of endothelial cells to form three-dimensional capillary-like tubular structures when cultured on a gel of basement membrane extract. The endothelial tube formation assay represents a powerful model for studying inhibition and induction of angiogenesis. Pre-labeled HUVEC with Calcein AM were seeded in a 96-well culture plate coated with extracellular metrix (Chemicon international Cat. ECM625) and treated with test peptides—10 micrograms per ml—in full growth medium. Positive control wes vehicle only. The endothelial cells were allowed to form tubes foe 20 hours and were then examined under an inverted fluorescent microscope. Duplicate wells for each treatment were photographed and quantitatively analyzed for an average tubule length using image analysis software ImageProPlus. Raw data were expressed as average tubule lengths in pixels±standard deviation. Statistic p values were computed using the Student's t-test.

Experiment [3] deals with Primary Human endothelial cells (HUVEC). Description: Endothelial cell migration assay. The settings on record: 10 micrograms per ml, 22 hours, combination peptide 1:peptide 2 1.10 mole:0.90 mole. In kind it is cell-based.
[4] abbreviates: combination 0.95 mole peptide 1 and 1.05 mole peptide 2.

With `Cc1cn([C@H]2C[C@H](N=[N+]=[N-])[C@@H](CO)O2)c(=O)[nH]c1=O` [AZT], in the experiment on HIV-1IIIB, the “antiviral activity of positive control compounds (HIV-1)” value is listed as “expected levels of antiviral activity”.
Take `Nc1nc(O)c2ncn(COC(CO)CO)c2n1` [Ganciclovir, reference compound]: the “antiviral activity of positive control compound (HCMV)” value in the experiment on HCMV strain AD169 (positive control) is “expected levels of antiviral activity”.
Consider “Ac-Pen-Arg-Gly-Asp-Cys-OH (Ac-[Pen′]RGDC-OH; reading uncertain; also: printed as Ac-Pen-Arg-Gly-Asp-Cys-OH) [Peptide 1]”, for which, in experiment [1], the “inhibition of HBV replication as compared to the virus control infection” value was “no effect”. The “inhibition of HCMV plaque formation as compared to the virus control experiment” value with HCMV strain AD169 is “did not inhibit”. The “inhibition of the growth of Streptococcus pneumoniae” value with Streptococcus pneumoniae was determined as 100%. In addition, in experiment [2] (72 hours), the “production of IL-4, decreased by” value came to 44%; the “production of IL-5, decreased by” value was 26.5%; the “production of TNF-alpha, induced by” value was determined as 30.0%. In experiment [2] (setting [4]), the “change of the production of IFN-y” value is “did not significantly change” and the “change of the production of IL-2” value is listed as “did not significantly change”. The “inhibition of the tube formation of human endothelial cells” value in the experiment on HUVEC (combination peptide 1:peptide 2 1.10 mole:0.90 mole) was determined as 26%. The “inhibition of the migration of human endothelial cells” value in experiment [3] came out at 4%.
On to `CC(C)(C)NC(=O)[C@@H]1CN(Cc2cccnc2)CCN1C[C@@H](O)C[C@@H](Cc1ccccc1)C(=O)N[C@H]1c2ccccc2C[C@H]1O` [indinavir], for which the “antiviral activity of positive control compounds (HIV-1)” value in the experiment on HIV-1IIIB is given as “expected levels of antiviral activity”.
Turning to “Thr-Asp-Thr-Ser-His-His-Asp-Gln-Asp-His-Pro-Thr-Phe-Asn-OH (TDTSHHDQDHPTFN-OH) [Peptide 2]”, the “inhibition of HCMV plaque formation as compared to the virus control experiment” value with HCMV strain AD169 is “did not inhibit”. Further, the “inhibition of the growth of Streptococcus pneumoniae” value with Streptococcus pneumoniae amounted to 100%. In experiment [2] (72 hours), the “production of IFN-y, induced by” value is on record as 23.4%; the “production of IL-4, induced by” value is on record as 29%; the “production of TNF-alpha, induced by” value is given as 34%. In experiment [2] (setting [4]), the “change of the production of IL-2” value was “did not significantly change” and the “change of the production of IL-5” value is “did not significantly change”. In the experiment on HUVEC, the “increase of the tube formation of endothelial cells” value was determined as 11%. Also, the “inhibition of the migration of human endothelial cells” value in experiment [3] came out at 8%.
